Assays:
[1] = test system: SK-Hep1; test: Cell migration assay (culture-insert gap); type: cell-based, human; details: 25 μM salsolinol
Method: A culture-insert (Ibidi; Martinsried, Germany) is attached to a 24-well plate to make a 500 μm interval, and then the cultured liver cancer cell lines (SK-Hep1) are dispensed so as to have a concentration of 1.5×10^5 cells. And the culturing is performed for 24 hours. After detaching the insert from the plate, each well is treated with the salsolinol so as to have a concentration of 25 μM. After the culturing is performed for 24 hours and for 48 hours, and the sample is photographed by a microscope to check the ability of migrating cells. The SK-Hep1 cells are dispensed into the culture-insert so as to have a concentration of 1.5×10^5 cells, and the culturing is performed for 24 hours. After detaching the insert from the plate, each well is treated with the salsolinol so as to have a concentration of 25 μM. After the culturing is performed for 24 hours and 48 hours, and the sample is photographed by a microscope to check the cell migration ability (refer to FIG. 3). […] When the culturing is performed for 48 hours, a large number of SK-Hep1 cells are migrated, and it is confirmed that the scratch disappears.

[2] = test system: Snai1, Vimentin genes in liver tissue; test: Real-time quantitative PCR of liver tissue, DEN-induced liver cancer mouse model; type: in vivo, C57BL/6 mouse; details: DEN+SAL liver tissue, corrected with β-actin
Method: A normal mouse (M-Ctrl, n=5), a DEN-induced liver cancer mouse model (M-DEN, n=4), and a DEN-induced liver cancer mouse model treated with the salsolinol (M-DEN+SAL, n=5) are sacrificed, and liver tissues are obtained. And after that, trizol is added to lyse the liver tissues. 1 ml of a TRI reagent solution is added to the liver tissue, and after homogenization, centrifuge separation is performed at 4° C. and 12,000 rpm for 10 minutes. About 0.75 ml of the middle layer excluding the upper and lower debris is separated and put into a new tube. […]
After removing the supernatant, the RNA is washed with 75% ethanol, centrifuge separation is performed at 4° C. at 7,500 rpm for 5 minutes, and the remaining ethanol is evaporated at room temperature. The separated total RNA is quantified by using Nandrop 2000 (Thermo), and after that, cDNA is synthesized by using a reverse transcription reaction oligo dT primer and RT enzyme. By using the synthesized cDNA as a template, after addition of each primer and Bio-Rad SYBR mix (#1725270) and amplification by using a Bio-Rad Real-Time PCR instrument, analysis is performed by using quantitative software. The products amplified by real time PCR are quantified by using a comparative cycle threshold (Ct) method. […]

[3] = test system: AKT, p-AKT, Annexin A2, PCNA in liver tissue; test: Western blotting of liver tissue, DEN-induced liver cancer mouse model; type: in vivo, C57BL/6 mouse; details: DEN+SAL liver tissue
Method: 5×10^5 cells of Human-derived liver cancer cell lines SK-Hep1 and SNU387 are cultured in a 60 mm culture vessel, the cells are lysed, and proteins are separated through electrophoresis. And after that, western blotting analysis is performed by using a specific antibody. After treatment of the SK-Hep1 and the SNU387 with the salsolinol at different times and concentrations, the cells are washed with PBS, and the cells are scraped off with a scraper. The cells are lysed in a lysis buffer for 1 hour, and after that, centrifuge separation is performed at 13,000 rpm for 15 minutes at 4° C., and only the supernatant is extracted. 20 μg of protein contained in the supernatant is electrophoresed on SDS-polyacrylamide gel, and after that, transferred to a PVDF membrane for 2 hours. The sample reacts with antibodies pSTAT3(#9145), STAT3(#9132), PCNA(#2586), 15-PGDH(cayman No. 160615), p53(sc-126), p53(sc-99), pAKT(#9271), AKT(#9272), Annexin A2(#8235), and GAPDH(sc-32233). The protein is detected by using an enhanced chemiluminascence (ECL) detection solution.
The salsolinol (200 mg/kg) is administered for 6 months through intraperitoneal injection three times per week from the time when the DEN-induced liver cancer mouse model (male) became 7 weeks of age. After the mouse is sacrificed, the experiment is performed.
The normal mouse, the DEN-induced liver cancer mouse model, and the DEN-induced liver cancer mouse model administered with the salsolinol are sacrificed, the livers are excised, the liver tissues are crushed, and the proteins are extracted. After separating the extracted protein through electrophoresis, the expression levels of tumor-related genes AKT, p-AKT, Annexin A2, and PCNA and the changes in the expression levels are analyzed by using a Western blotting method (refer to FIG. 9).

## CC1NCCc2cc(O)c(O)cc21 (stereo not shown) [salsolinol, 6,7-dihydroxy-1-methyl-1,2,3,4-tetrahydroisoquinoline]
[1]; 24 hours
  cell migration ability: some cells are migrated, but the scratch portion is clearly distinguished
[1]; 48 hours
  cell migration ability: scratch portion does not disappear
[2]
  Snai1 gene expression level: decreased to the expression level of expression in the normal mouse
  Vimentin gene expression level: decreased to the expression level of expression in the normal mouse
[3]
  Annexin A2 expression level: decreased
  PCNA expression level: decreased to the level of the normal mouse
  degree of phosphorylation of AKT (p-AKT): decreased to the level of the normal mouse
